The values below come from patent US8455475B2 (Gruenenthal GmbH, priority 2009, dated 2013).

Molecules are shown by their SMILES.

The target of the experiment is T1, rat B1R (bradykinin receptor 1) (Rattus norvegicus, UniProt P97583).
T1 construct: expressed in transfected cells; host or cells: CHO K1 cells
T1 sequence (P97583 1-337): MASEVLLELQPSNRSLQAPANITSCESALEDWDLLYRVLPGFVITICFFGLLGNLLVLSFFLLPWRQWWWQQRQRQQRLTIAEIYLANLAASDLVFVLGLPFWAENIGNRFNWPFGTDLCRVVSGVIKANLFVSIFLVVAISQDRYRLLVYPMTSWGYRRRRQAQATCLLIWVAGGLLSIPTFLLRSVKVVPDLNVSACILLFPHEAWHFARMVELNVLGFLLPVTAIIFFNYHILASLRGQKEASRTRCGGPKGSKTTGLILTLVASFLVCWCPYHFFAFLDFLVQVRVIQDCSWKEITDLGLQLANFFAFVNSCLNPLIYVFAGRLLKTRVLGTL
The experiment can be described thus: FLIPR Ca2+ assay (Fluo-4) on CHO K1 cells stably transfected with the B1R gene of the rat (rB1R cells): % inhibition at 10 μM / IC50, agonist Des-Arg9-bradykinin. The class given is cell-based. The settings on record: CHO-K1, rat B1R. In short, it runs like this: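 Antagonism is measured as the drop in peak Fluo-4 Ca2+ signal when the EC80 agonist follows 10–20 min compound exposure. The single-point screen uses 10 μM; IC50 uses several concentrations. Values are given as % of maximal achievable inhibition.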
With `Cn1nc(C(C)(C)C)cc1C(=O)N1CCC2(CCN(C(=O)c3ccc4c(c3)C(NC(=O)c3ccccc3Cl)CC4)C2)CC1` (stereo not shown) [IND_CC-578, N-[6-[8-(5-tert-Butyl-2-methyl-2H-pyrazole-3-carbonyl)-2,8-diazaspiro-[4.5]decane-2-carbonyl]-2,3-dihydro-1H-inden-1-yl]-2-chloro-benzamide], the inhibition at 10 µM was found to be 79%.

Turning to `COc1cccc(F)c1CN1CCC2(CC1)CCN(C(=O)c1ccc3c(c1)C(NC(=O)c1cc(C(F)(F)F)ccc1Cl)CC3)CC2` (stereo not shown) [IND_CC-649, 2-Chloro-N-[6-[9-[(2-fluoro-6-methoxy-phenyl)-methyl]-3,9-diazaspiro[5.5]-undecane-3-carbonyl]-2,3-dihydro-1H-inden-1-yl]-5-(trifluoromethyl)benzamide], the inhibition at 10 µM stood at 76%.

For `N#Cc1cccc(NC(=O)N2CCC3(CC2)CCN(C(=O)c2ccc4c(c2)C(NC(=O)c2ccccc2Cl)CC4)C3)c1` (stereo not shown) [IND_CC-503, 2-[3-[(2-Chloro-benzoyl)amino]-2,3-dihydro-1H-indene-5-carbonyl]-N-(3-cyano-phenyl)-2,8-diazaspiro[4.5]decane-8-carboxylic acid amide], the inhibition at 10 µM was found to be 66%.

For `COc1ccc(CN2CCC3(CC2)CCN(C(=O)c2ccc4c(c2)C(NC(=O)c2cc(Cl)ccc2F)CC4)C3)cc1F` (stereo not shown) [IND_CC-623, 5-Chloro-2-fluoro-N-[6-[8-[(3-fluoro-4-methoxy-phenyl)-methyl]-2,8-diazaspiro[4.5]decane-2-carbonyl]-2,3-dihydro-1H-inden-1-yl]-benzamide], the inhibition at 10 µM amounted to 59%.

For the compound `O=C(NC1CCc2ccc(C(=O)N3CCC4(CCN(C(=O)Nc5ccc(F)c(Cl)c5)CC4)C3)cc21)c1ccccc1Cl` (stereo not shown) [IND_CC-502, 2-[3-[(2-Chloro-benzoyl)amino]-2,3-dihydro-1H-indene-5-carbonyl]-N-(3-chloro-4-fluoro-phenyl)-2,8-diazaspiro[4.5]decane-8-carboxylic acid amide], the inhibition at 10 µM is 71%.

For `CN(C)c1ncc(CN2CCC3(CC2)CCN(C(=O)c2ccc4c(c2)C(NC(=O)c2cc(C(F)(F)F)ccc2Cl)CC4)C3)cn1` (stereo not shown) [IND_CC-683, 2-Chloro-N-[6-[8-[(2-dimethylamino-pyrimidin-5-yl)-methyl]-2,8-diazaspiro[4.5]-decane-2-carbonyl]-2,3-dihydro-1H-inden-1-yl]-5-(trifluoromethyl)-benzamide], the inhibition at 10 µM came out at 62%.

In the case of `CCC(CC)CN1CCC2(CC1)CCN(C(=O)c1ccc3c(c1)C(NC(=O)c1cc(C(F)(F)F)ccc1Cl)CC3)CC2` (stereo not shown) [IND_CC-699, 2-Chloro-N-[6-[9-(2-ethyl-butyl)-3,9-diazaspiro[5.5]undecane-3-carbonyl]-2,3-dihydro-1H-inden-1-yl]-5-(trifluoromethyl)-benzamide], the inhibition at 10 µM turned out to be 75%.

On to `O=C(NC1CCc2ccc(C(=O)N3CCC4(CCN(c5ccncc5)CC4)C3)cc21)c1c(F)cccc1F` (stereo not shown) [IND_CC-386, 2,6-Difluoro-N-[6-(8-pyridin-4-yl-2,8-diazaspiro[4.5]decane-2-carbonyl)-2,3-dihydro-1H-inden-1-yl]-benzamide], for which the inhibition at 10 µM came out at 104%.

On to `O=C(NC1CCc2ccc(C(=O)N3CCC4(CCN(Cc5ccc6ncccc6c5)CC4)CC3)cc21)c1cc(C(F)(F)F)ccc1Cl` (stereo not shown) [IND_CC-695, 2-Chloro-N-[6-[9-(quinolin-6-yl-methyl)-3,9-diazaspiro[5.5]undecane-3-carbonyl]-2,3-dihydro-1H-inden-1-yl]-5-(trifluoromethyl)-benzamide], for which the inhibition at 10 µM is 100%.

As for `O=C(NC1CCc2ccc(C(=O)N3CCC4(CCN(C(=O)C5CC5)CC4)C3)cc21)c1sccc1Cl` (stereo not shown) [IND_CC-582, 3-Chloro-N-[6-[8-(cyclopropanecarbonyl)-2,8-diazaspiro[4.5]decane-2-carbonyl]-2,3-dihydro-1H-inden-1-yl]-thiophene-2-carboxylic acid amide], the inhibition at 10 µM was found to be 58%.

`CC1(C)CC(NS(=O)(=O)c2c(Cl)cccc2Cl)c2cc(C(=O)N3CCC4(CC3)CCN(c3ccncc3)CC4)ccc21` (stereo not shown) [IND_CC-332, 2,6-Dichloro-N-[3,3-dimethyl-6-(3-pyridin-4-yl-3,9-diazaspiro[5.5]undecane-9-carbonyl)-1,2-dihydro-inden-1-yl]-benzenesulfonic acid amide]: the inhibition at 10 µM was found to be 97%.

As to `O=C(NC1CCc2ccc(C(=O)N3CCC4(CCN(Cc5c(F)cccc5Cl)CC4)CC3)cc21)c1cc(C(F)(F)F)ccc1Cl` (stereo not shown) [IND_CC-670, 2-Chloro-N-[6-[9-[(2-chloro-6-fluoro-phenyl)-methyl]-3,9-diazaspiro[5.5]-undecane-3-carbonyl]-2,3-dihydro-1H-inden-1-yl]-5-(trifluoromethyl)benzamide], the inhibition at 10 µM is 67%.

In the case of `CN(C(=O)C1CCCC1)C1CCc2ccc(C(=O)N3CCC4(CC3)CCN(c3ccncc3)CC4)cc21` (stereo not shown) [IND_CC-392, N-Methyl-N-[6-(9-pyridin-4-yl-3,9-diazaspiro[5.5]undecane-3-carbonyl)-2,3-dihydro-1H-inden-1-yl]-cyclopentanecarboxylic acid amide], the inhibition at 10 µM is 102%.

In the case of `CCn1cc(CN2CCC3(CC2)CCN(C(=O)c2ccc4c(c2)C(NC(=O)c2c(C)cccc2Cl)CC4)C3)c(C)n1` (stereo not shown) [IND_CC-762, 2-Chloro-N-[6-[8-[(1-ethyl-3-methyl-1H-pyrazol-4-yl)-methyl]-2,8-diazaspiro-[4.5]decane-2-carbonyl]-2,3-dihydro-1H-inden-1-yl]-6-methyl-benzamide], the inhibition at 10 µM was 55%.

As to `O=C(NC1CCc2ccc(C(=O)N3CCC4(CCN(CCCc5ccc(F)cc5)CC4)C3)cc21)c1c(F)cccc1Cl` (stereo not shown) [IND_CC-782, 2-Chloro-6-fluoro-N-[6-[8-[3-(4-fluorophenyl)-propyl]-2,8-diazaspiro[4.5]decane-2-carbonyl]-2,3-dihydro-1H-inden-1-yl]-benzamide], the inhibition at 10 µM was 107%.

On to `Cc1cc(F)ccc1S(=O)(=O)N(C)C1CCc2ccc(C(=O)N3CCC4(CC3)CCN(c3ccncc3)CC4)cc21` (stereo not shown) [IND_CC-326, 4-Fluoro-N,2-dimethyl-N-[6-(9-pyridin-4-yl-3,9-diazaspiro[5.5]undecane-3-carbonyl)-2,3-dihydro-1H-inden-1-yl]-benzenesulfonic acid amide], for which the inhibition at 10 µM is 100%.

For the compound `CCC(CC)CN1CCC2(CC1)CCN(C(=O)c1ccc3c(c1)C(NC(=O)c1cc(C(F)(F)F)ccc1Cl)CC3)C2` (stereo not shown) [IND_CC-688, 2-Chloro-N-[6-[8-(2-ethyl-butyl)-2,8-diazaspiro[4.5]decane-2-carbonyl]-2,3-dihydro-1H-inden-1-yl]-5-(trifluoromethyl)-benzamide], the inhibition at 10 µM is 88%.

As to `O=C(NC1CCc2ccc(C(=O)N3CCC4(CCN(Cc5ccc6ncccc6c5)CC4)C3)cc21)c1sccc1Cl` (stereo not shown) [IND_CC-570, 3-Chloro-N-[6-[8-(quinolin-6-yl-methyl)-2,8-diazaspiro[4.5]decane-2-carbonyl]-2,3-dihydro-1H-inden-1-yl]-thiophene-2-carboxylic acid amide], the inhibition at 10 µM came to 57%.

As to `CC(C)CC(=O)NC1CCc2ccc(C(=O)N3CCC4(CCN(c5ccncc5)CC4)C3)cc21` (stereo not shown) [IND_CC-409, 3-Methyl-N-[6-(8-pyridin-4-yl-2,8-diazaspiro[4.5]decane-2-carbonyl)-2,3-dihydro-1H-inden-1-yl]-butyramide], the inhibition at 10 µM is 102%.
